Patent US20090018201A1, “Method of Combating Bugs” (BASF Aktiengesellschaft, priority 2005, published 2009)

Experiments:
Experiment in all cases: Field test, activity against bugs on treated host plants
Type in all cases: in vivo
[1] = tested on: Leptocorisa corbetti (Leaf-footed bug); details: crop Rice; rate 50 ppm (the 1st table r9); field plots, spray
Method: (§1) Host plants (such as rice, wheat, and cabbage) were treated with 50, 150 or 300 ppm of a compound of formula I. Treatments were diluted in water and applied at 400 to 600 liters/hectare to experimental plots using standard application equipment (such as a backpack sprayer). Each treatment was replicated 3 times and comprised an area of approximately 30 square meters. Pre-treatment evaluations of the number of live insects per plant were made one day prior to first treatment. Post-treatment evaluations were made at 5 to 7 day intervals. Field studies were conducted under ambient conditions during normal growing season.

[2] = tested on: Eurydema ornatum (Cabbage bug); details: crop Cabbage; rate 50 ppm (the 1st table r13); field plots, spray
Method: as §1

[3] = tested on: Trigonotylus coelestialum (Rice leaf bug); details: crop Rice; rate 50 ppm (the 1st table r3); field plots, spray
Method: as §1

[4] = tested on: Lagynotomus elongatus (Brown rice stink bug); details: crop Rice; rate 150 ppm (the 1st table r10); field plots, spray
Method: as §1

[5] = tested on: Halticus bracteatus (Garden fleahopper); details: crop Alfalfa; rate 300 ppm (the 1st table r11); field plots, spray
Method: as §1

[6] = tested on: Stenotus rubrovittatus (Sorghum plant bug); details: crop Rice; rate 50 ppm (the 1st table r4); field plots, spray
Method: as §1

Paromius exiguus = details: crop Rice; rate 300 ppm (the 1st table r5); field plots, spray
Method: as §1

[7] = tested on: Cletus trigonus (Slender rice bug); details: crop Rice; rate 50 ppm (the 1st table r14); field plots, spray
Method: as §1

[8] = tested on: Euschistus spp (Stink bug spp.); details: crop Rice; rate 300 ppm (the 1st table r12); field plots, spray
Method: as §1

[9] = tested on: Nezara antennata (Common green stink bug); details: crop Rice; rate 300 ppm (the 1st table r6); field plots, spray
Method: as §1

[10] = tested on: Lygus hesperus (Western plant bug); details: crop Alfalfa; rate 100 ppm (the 1st table r8); field plots, spray
Method: as §1, with “Host plants (such as rice, wheat, and cabbage) were treated with 50, 150 or 300 ppm of a compound of formula I.” left out

Measured: control

CCNC(=NNc1c(Cl)cc(C(F)(F)F)cc1Cl)C1(C)CC1(Cl)Cl (stereo not drawn) [N-ethyl-2,2-dichloro-1-methylcyclopropane-carboxamide, 2-(2,6-dichloro-α,α,α-trifluoro-p-tolyl)hydrazone]
over 75%: all assays above
